In the experiment the target is T1, Diacylglycerol O-acyltransferase 2 (Homo sapiens, UniProt Q96PD7).
T1 sequence (Q96PD7 whole entry): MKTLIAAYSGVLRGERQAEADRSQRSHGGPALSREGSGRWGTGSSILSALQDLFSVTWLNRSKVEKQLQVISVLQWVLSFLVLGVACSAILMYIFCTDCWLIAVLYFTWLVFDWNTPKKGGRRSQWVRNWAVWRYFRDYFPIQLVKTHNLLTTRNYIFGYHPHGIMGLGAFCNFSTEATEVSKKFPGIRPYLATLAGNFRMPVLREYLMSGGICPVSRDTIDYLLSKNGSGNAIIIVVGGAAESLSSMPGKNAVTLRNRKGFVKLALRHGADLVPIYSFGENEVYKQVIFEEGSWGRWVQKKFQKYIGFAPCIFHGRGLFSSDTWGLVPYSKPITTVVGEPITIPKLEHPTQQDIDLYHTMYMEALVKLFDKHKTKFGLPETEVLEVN
The experiment is described as follows: Enzymatic Activity Assay: DGAT2 activity was determined by measuring the amount of enzymatic product triolein (1,2,3-Tri(cis-9-octadecenoyl)glycerol) using the membrane prep mentioned above. The assay was carried out in deep well 384 plates in a final volume of 40 μL at room temperature. The assay mixture contained the following: assay buffer (100 mM Tris.Cl, pH 7.0, 20 mM MgCl2, 5% ethanol), 25 μM of diolein, 10 μM of oleoyl-CoA and 10 ng/μL of DGAT2 membrane.

As usually defined, the IC50 is the point on the concentration scale where inhibition reaches its midpoint. `CC(C)(C)OC(=O)N1C[C@@H](O)[C@H](NC(=O)c2ccc3c(-c4ccccc4Cl)nn(-c4ccc(F)cc4)c3c2)C1`: the IC50 is 205 nM.
